Assay results: US20250090557A1 (priority 2020, published 2025)
Read-outs that look alike come from different tables or passages of the source.

What was measured:
TOM70 = TOM70 protein levels in Calu3 cells (flow cytometry, immunofluorescence); format: cell-based, human
SARS-CoV-2 [1] = assay: SARS-CoV-2 infection of HEK293T-hACE2 cells (flow cytometry); format: cell-based; settings: HEK293T-hACE2, 100 nM, 72 h
SARS-CoV-2 [2] = assay: SARS-CoV-2 infection of air-liquid interface human airway epithelium cultures (flow cytometry); format: cell-based; settings: 100 nM, 72 h
Vero cells = settings: uninfected Vero cultures, 10-1000 nM
IL-6 = format: cell-based, African green monkey
[3] = test system: ACE2, CD147, NRP1 and TMPRSS2; assay: Host entry factor protein levels in Calu3 cells (flow cytometry); format: cell-based, human; settings: Calu3, compared to uninfected cells, data not shown
Calu3 cells = assay: Seahorse mitochondrial respirometry and cellular bioenergetics in infected Calu3 cells
Experimental: Flow cytometry was used to determine the cellular content of Calu3 cells for mitochondrial reactive oxygen species (mito-ROS) based on the median fluorescence intensity (MFI) of the fluorochrome MitoSOX Red and was compared to a negative cell population (fluorescence minus one negative control for staining) (ΔMFI). Flow cytometry was used to determine the percent of SARS-CoV-2 infected Calu3 cells positive for MitoSOX Red. Calu3 and Vero cells were treated with DMSO vehicle control (Ctrl) or the mitochondrial antioxidants MitoTEMPO (25-1000 nM) (72 h) or Mito-MES (25-1000 nM) (72 h) and were infected with a fluorescent mNeonGreen SARS-CoV-2 (icSARS-CoV-2-mNG) (MOI 0.3) (48 h). Immunofluorescent analysis of viral replication and cellular oxidative stress was performed at 48 h post-infection. […] Seahorse XF Analyzer was used to determine mitochondrial respirometry and cellular bioenergetics [oxygen consumption rate (OCR) and extracellular acidification rate (ECAR)] of live Calu3 cells treated with Mito-MES (25-1000 nM) or vehicle control (ctrl) (72 h) and infected with SARS-CoV-2 (MOI 0.1) (48 h). […] Viral replication was determined by TCID50-assay (FIG. 3-d), cell cytotoxicity was assessed by the XTT assay in uninfected cells treated with dTPP (0.01-10 μM) (72 h) (FIG. 3-e). […]

cleaved caspase 3 [4] = format: cell-based, human
IL-1β = format: cell-based, human; settings: infected Calu3 supernatants
[5] = test system: mitochondrial reactive oxygen species (mito-ROS); format: cell-based, human
cleaved caspase 3 [6] = format: cell-based, African green monkey; settings: Vero
SARS-CoV-2 [7] = format: cell-based
SARS-CoV-2 [8] = format: cell-based; remark: listed apart in the source
IFN-β and IFN-λ = format: cell-based, human

In the case of COC1=C(OC)C(=O)C(CCCCCCCCCC[P+](c2ccccc2)(c2ccccc2)c2ccccc2)=C(C)C1=O.CS(=O)(=O)[O-] [Mito-MES, 10-(4,5-dimethoxy-2-methyl-3,6-dioxo-1,4-cyclohexadienyl) decyl triphenylphosphonium methanesulfonate], the “TOM70 protein levels (flow cytometry)” value (TOM70) is reported as “increased TOM70 protein levels”, the “TOM70 protein levels (immunofluorescence)” value (TOM70) is reported as “dose-dependent increase in TOM70 protein levels” and the “percent of SARS-CoV-2 infected cells (flow cytometry)” value (SARS-CoV-2 [1]) is reported as “significantly reduced the percent of SARS-CoV-2 infected human non-cancerous HEK293T epithelial cells”. For the same molecule, the “percent of SARS-CoV-2 infected FOXJ1+ ciliated epithelial cells (flow cytometry)” value (SARS-CoV-2 [2]; ALI HAE cultures) was “significantly reduced the percent of SARS-CoV-2 infected human FOXJ1^+ ciliated epithelial cells”, the “percent of SARS-CoV-2 infected human lung epithelial cells (flow cytometry)” value (SARS-CoV-2 [2]; primary HAE ALI cultures) was “significantly reduced the percent of SARS-CoV-2 infected human lung epithelial cells” and the “cytotoxicity (XTT assay)” value (Vero cells) was “no observed cytotoxicity”. For the same molecule, the “secretion of IL-6 resulting from SARS-CoV-2 infection (ELISA)” value (IL-6) was “attenuated the increase in secretion of IL-6”, the “protein levels of ACE2, TMPRSS2, NRP1 and CD147” value [3] was “Neither SARS-CoV-2 infection nor Mito-MES significantly modulates” and the ROS (Calu3 cells; Calu3, 1000 nM) was “increased ROS”. For the same molecule, the mitochondrial respirometry (Calu3 cells; Calu3, 50-1000 nM) was “reduced mitochondrial respirometry”, the “percent of infected cells positive for cleaved caspase 3 and MFI per cell (flow cytometry)” value (cleaved caspase 3 [4]; Calu3, 100 nM) was “inhibits or reduces SARS-CoV-2-induced increase” and the “SARS-CoV-2-induced cleavage of caspase 3 (immunofluorescence)” value (cleaved caspase 3 [4]; Calu3, 10-1000 nM) was “reduced by Mito-MES treatment”. The “secretion of IL-1β (Luminex)” value (IL-1β) was “tended (p=0.09) to reduce the secretion of IL-IP”, the “mito-ROS generation (MitoSOX Red MFI and percent positive cells)” value [5] was “reduced mito-ROS generation” and the “percent of infected cells positive for cleaved caspase 3 and MFI per cell (flow cytometry)” value (cleaved caspase 3 [6]; 100 nM) was “inhibits or reduces SARS-CoV-2-induced increase”. The “SARS-CoV-2-induced cleavage of caspase 3 (immunofluorescence)” value (cleaved caspase 3 [6]; 10-1000 nM) was “reduced by Mito-MES treatment”, the “concentration at which potent antiviral activity is exhibited (immunofluorescence and PCR)” value (SARS-CoV-2 [7]; Calu3) was no more than 10 nM and the “viral titers vs vehicle control (TCID50)” value (SARS-CoV-2 [7]; Calu3, 10 nM Mito-MES alone) was “reduced viral titers”. For the same molecule, the “reduction of release of progeny virus (TCID50 of cell supernatants)” value (SARS-CoV-2 [7]; Calu3, 100 nM and 1000 nM) was greater than 2 logs, the “antiviral activity by immunofluorescence (spike S protein)” value (SARS-CoV-2 [8]) was “modest antiviral activity” and the “viral genomic RNA in cell lysates (qPCR)” value (SARS-CoV-2 [8]; Vero cells) was “confirmed by qPCR”. For the same molecule, the “percent of infected cells positive for N protein and Spike S protein (flow cytometry)” value (SARS-CoV-2 [8]; Vero cells, viable single cells) was “reduced the percent of infected cells”, the “antiviral activity relative to positive control remdesivir (TCID50)” value (SARS-CoV-2 [8]; Vero cells, vs 5 μM remdesivir) was “modest compared to 5 μM remdesivir” and the “total cellular IFN-β and IFN-λ protein levels (ELISA, lysates)” value (IFN-β and IFN-λ; infected Calu3, 100-1000 nM) was “independently confirmed”. For the same molecule, the “secretion of IFN-β and IFN-λ (ELISA, supernatants)” value (IFN-β and IFN-λ; infected Calu3, 48 h post infection, 100-1000 nM) was “did not”.
